The target in assay [1] is FGFR2 (h) (Homo sapiens, UniProt P21802). Description: FGFR2 (enzymatic assay), TR-FRET. Type of assay: biochemical. The settings on record: enzymatic assay, read-out: FGFR 2 pIC50 (converted). A digest of the protocol: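 hFGFR2 150 ng/ml; Btn-Flt3 500 nM; ATP 0.4 μM; 50 mM HEPES pH 7.5, 6 mM MnCl2, 1 mM DTT, 0.1 mM Na3VO4, 0.01% Triton-X-100; 1% DMSO final.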
In general terms: In TR-FRET formats the signal depends on donor and acceptor labels being close together.

The test system of assay [2] is Ba/F3-FGFR3-transfected cells. Description: Ba/F3-FGFR3 (plus IL3) cellular proliferation assay, counterscreen with 10 ng/ml murine IL3. Type of assay: cell-based. The settings on record: plus IL3 (10 ng/ml murine IL3, counterscreen); read-out: BAF3-FGFR3 (PLUS IL3) pIC50 (converted). The essentials: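 Viability readout was resazurin reduction (ex 540/em 590 nm) after 4 h, following 24 h compound treatment at 37 °C of FGFR3-transfected Ba/F3 cells (20000/well, RPMI-1640/10% FBS). IL3-dependent counterscreen used identical conditions plus 10 ng/ml murine IL3.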
For orientation: The purpose of a counterscreen is to sort out artefacts and off-target activity.

Assay [3] addresses T1, Ba/F3-KDR-transfected cells (Homo sapiens, UniProt P35968).
T1 construct: BAF3-KDR (MIN IL3) pIC50; other: minus IL3
Kind of assay: Ba/F3-KDR (minus IL3) cellular proliferation assay, Alamar Blue. Format: cell-based. A digest of the protocol: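 Proliferation read-out by Alamar Blue fluorescence (ex. 540 nm, em. 590 nm) after 4 hours, following 24 hours of compound treatment at 37° C of 20000 Ba/F3-KDR cells per well in RPMI-1640/10% FBS. Same protocol with 10 ng/ml murine IL3 serves as counterscreen.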
On the technique in general: Resazurin is reduced to fluorescent resorufin, in cell work by metabolically active cells.

The mark [4] stands for this setting: average values if tested multiple times.

Molecules are shown by their SMILES. Counter-ions that a name gives are not always drawn. Like-named read-outs stand apart in the source and are kept apart here.

Sequence of FGFR2 (h) (P21802 22-821): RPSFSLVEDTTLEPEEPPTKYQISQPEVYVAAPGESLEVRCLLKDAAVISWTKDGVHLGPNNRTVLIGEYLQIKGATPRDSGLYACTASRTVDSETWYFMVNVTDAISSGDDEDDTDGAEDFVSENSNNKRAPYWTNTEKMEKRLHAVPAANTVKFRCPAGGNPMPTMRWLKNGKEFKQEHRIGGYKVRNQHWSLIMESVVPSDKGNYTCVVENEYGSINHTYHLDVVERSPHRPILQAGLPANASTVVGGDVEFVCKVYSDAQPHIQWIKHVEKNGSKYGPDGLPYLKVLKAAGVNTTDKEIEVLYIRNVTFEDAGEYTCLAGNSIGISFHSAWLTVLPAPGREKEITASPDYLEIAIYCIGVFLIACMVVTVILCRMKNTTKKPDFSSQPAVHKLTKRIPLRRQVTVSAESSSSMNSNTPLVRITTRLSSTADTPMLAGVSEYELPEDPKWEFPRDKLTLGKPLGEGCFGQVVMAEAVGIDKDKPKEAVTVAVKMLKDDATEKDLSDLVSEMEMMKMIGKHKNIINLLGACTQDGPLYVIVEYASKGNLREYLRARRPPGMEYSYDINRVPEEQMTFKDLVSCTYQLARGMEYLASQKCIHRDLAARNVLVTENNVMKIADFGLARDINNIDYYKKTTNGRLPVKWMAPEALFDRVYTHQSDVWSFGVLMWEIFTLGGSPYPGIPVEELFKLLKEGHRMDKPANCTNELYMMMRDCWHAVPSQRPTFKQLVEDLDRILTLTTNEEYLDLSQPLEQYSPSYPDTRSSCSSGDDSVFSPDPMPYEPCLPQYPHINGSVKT
T1 sequence (P35968 whole entry, change not shown): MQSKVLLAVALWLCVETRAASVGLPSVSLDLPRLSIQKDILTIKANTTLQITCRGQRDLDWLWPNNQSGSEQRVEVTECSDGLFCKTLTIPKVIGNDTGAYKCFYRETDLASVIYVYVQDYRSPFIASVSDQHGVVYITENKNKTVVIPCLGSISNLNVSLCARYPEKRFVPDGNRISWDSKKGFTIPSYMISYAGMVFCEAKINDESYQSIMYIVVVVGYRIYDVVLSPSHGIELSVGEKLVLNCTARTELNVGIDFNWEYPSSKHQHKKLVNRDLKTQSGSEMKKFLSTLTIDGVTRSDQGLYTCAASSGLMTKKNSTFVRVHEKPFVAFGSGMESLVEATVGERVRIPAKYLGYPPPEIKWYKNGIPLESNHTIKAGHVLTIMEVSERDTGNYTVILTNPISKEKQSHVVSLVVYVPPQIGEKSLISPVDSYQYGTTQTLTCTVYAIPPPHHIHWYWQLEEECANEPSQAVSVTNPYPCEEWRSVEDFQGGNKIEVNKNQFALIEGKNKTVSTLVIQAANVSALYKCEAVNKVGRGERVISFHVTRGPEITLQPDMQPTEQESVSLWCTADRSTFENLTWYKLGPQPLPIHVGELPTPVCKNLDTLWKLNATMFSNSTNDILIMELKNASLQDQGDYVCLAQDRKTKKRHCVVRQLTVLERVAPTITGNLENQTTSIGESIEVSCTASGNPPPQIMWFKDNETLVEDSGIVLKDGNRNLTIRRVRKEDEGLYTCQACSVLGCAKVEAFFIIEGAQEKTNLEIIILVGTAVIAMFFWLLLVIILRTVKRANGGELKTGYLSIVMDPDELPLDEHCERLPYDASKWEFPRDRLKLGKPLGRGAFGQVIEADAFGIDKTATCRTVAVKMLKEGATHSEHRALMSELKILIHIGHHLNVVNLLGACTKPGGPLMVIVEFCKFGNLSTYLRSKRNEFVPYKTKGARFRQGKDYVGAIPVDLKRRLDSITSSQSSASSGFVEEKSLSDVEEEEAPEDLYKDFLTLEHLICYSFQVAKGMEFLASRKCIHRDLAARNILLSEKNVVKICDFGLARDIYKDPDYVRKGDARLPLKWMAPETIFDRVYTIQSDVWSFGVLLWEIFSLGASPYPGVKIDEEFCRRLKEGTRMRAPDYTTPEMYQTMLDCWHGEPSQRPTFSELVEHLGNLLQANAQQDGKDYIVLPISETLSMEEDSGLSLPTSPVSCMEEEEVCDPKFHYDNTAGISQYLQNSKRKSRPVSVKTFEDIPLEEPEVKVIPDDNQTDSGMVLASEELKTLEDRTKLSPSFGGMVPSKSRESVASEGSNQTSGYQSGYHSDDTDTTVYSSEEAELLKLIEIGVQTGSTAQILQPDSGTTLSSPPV

With `COc1cc(OC)cc(N(Cc2ncc[nH]2)c2ccc3ncc(-c4cnn(C)c4)nc3n2)c1` [Compound 24], the values for the IC50 in assay [1] (setting [4]) and in assay [2] were 1.12 nM and more than 10000 nM, respectively. The “BAF3-KDR (MIN IL3) pIC50” value in assay [3] came out at 6.22.

For the molecule `COc1cc(OC)c(F)c(N(Cc2nncn2C)c2ccc3ncc(-c4cnn(C)c4)nc3n2)c1` [Compound 132], the IC50 was 3.02 nM in assay [1] and more than 10000 nM in assay [2]. In assay [3], the “BAF3-KDR (MIN IL3) pIC50” value worked out at 5.38.

For `COc1cc(OC)c(F)c(N(Cc2nccn2C)c2ccc3ncc(-c4cnn(C)c4)nc3n2)c1` [Compound 131], the IC50 in assay [1] is 2.63 nM; in assay [2], more than 10000 nM. Further, the “BAF3-KDR (MIN IL3) pIC50” value in assay [3] is given as 5.50.

Consider `COc1cc(OC)c(F)c(/N=c2\ccc3ncc(-c4cnn(C)c4)nc3n2CCN)c1F` [Compound 68], for which the values for the IC50 in assay [1] (setting [4]) and in assay [2] were 1.58 nM and more than 10000 nM, respectively. Moreover, the “BAF3-KDR (MIN IL3) pIC50” value in assay [3] was found to be 6.07.

With `COc1cc(OC)c(F)c(/N=c2\ccc3ncc(-c4cnn(C)c4)nc3n2CC(O)COC(C)C)c1F` (stereo not drawn) [Compound 64], the IC50 in assay [1] (setting [4]) was 1.62 nM; in assay [2], more than 10000 nM. The “BAF3-KDR (MIN IL3) pIC50” value in assay [3] is given as 6.31.

As for `COc1cc(/N=c2\ccc3ncc(-c4cnn(C)c4)nc3n2Cc2cc[nH]n2)c(F)c(OC)c1` [Compound 115], the IC50 in assay [1] (setting [4]) was 1.58 nM; in assay [2], more than 10000 nM. Besides, the “BAF3-KDR (MIN IL3) pIC50” value in assay [3] was 6.58.

`COc1ccc(Cl)c(N(Cc2ncc[nH]2)c2ccc3ncc(-c4cnn(C)c4)nc3n2)c1Cl` [Compound 65]: the figures for the IC50 in assay [1] (setting [4]) and in assay [2] were approximately 11.2 nM and more than 10000 nM, respectively. Further, the “BAF3-KDR (MIN IL3) pIC50” value in assay [3] was determined as 5.06.

Regarding `COc1cc(OC)c(F)c(N(Cc2nc(C)c[nH]2)c2ccc3ncc(-c4cnn(C)c4)nc3n2)c1` [Compound 135], the IC50 in assay [1] is 1.78 nM; in assay [2] it was more than 10000 nM. In assay [3], the “BAF3-KDR (MIN IL3) pIC50” value is 6.64.

For the molecule `COc1cc(/N=c2\ccc3ncc(-c4cnn(C)c4)nc3n2Cc2ccnn2C)c(F)c(OC)c1` [Compound 114], the IC50 in assay [1] (setting [4]) is 1.62 nM; in assay [2], more than 10000 nM. In addition, in assay [3], the “BAF3-KDR (MIN IL3) pIC50” value was approximately 7.05.

In the case of `COc1cc(OC)c(F)c(N(Cc2nc[nH]n2)c2ccc3ncc(-c4cnn(C)c4)nc3n2)c1F` [Compound 85], the IC50 is 2.04 nM in assay [1] (setting [4]) and more than 10000 nM in assay [2]. Moreover, in assay [3], the “BAF3-KDR (MIN IL3) pIC50” value is 6.43.

As to `COc1cc(/N=c2\ccc3ncc(-c4cnn(C)c4)nc3n2CC2COC(=O)N2)c(F)c(OC)c1` (stereo not drawn) [Compound 123], the IC50 is 1.26 nM in assay [1] and more than 10000 nM in assay [2]. The “BAF3-KDR (MIN IL3) pIC50” value in assay [3] was 5.53.

For the molecule `COc1cc(OC)c(F)c(N(CC(O)COC(C)C)c2ccc3ncc(-c4cnn(C)c4)nc3n2)c1F` (stereo not drawn) [Compound 63], the results for the IC50 in assay [1] (setting [4]) and in assay [2] were 6.17 nM and more than 10000 nM, respectively. Further, in assay [3], the “BAF3-KDR (MIN IL3) pIC50” value came to 6.58.

Take `CNCCN(c1ccc2ncc(-c3cnn(C)c3)nc2n1)c1c(Cl)ccc(OC)c1Cl` [Compound 83]: the IC50 in assay [1] (setting [4]) was 49 nM; in assay [2], more than 10000 nM. The “BAF3-KDR (MIN IL3) pIC50” value in assay [3] is on record as less than 5.

As to `COc1cc(OC)c(F)c(N(Cc2ccn(C)n2)c2ccc3ncc(-c4cnn(C)c4)nc3n2)c1` [Compound 128], the figures for the IC50 in assay [1] and in assay [2] were 1.55 nM and more than 10000 nM, respectively. Moreover, the “BAF3-KDR (MIN IL3) pIC50” value in assay [3] came to 6.34.

Consider `COc1cc(OC)cc(N(Cc2ncc[nH]2)c2ccc3ncc(-c4cnn(C)c4)nc3n2)c1` (racemic) [24-DL-tartrate salt], for which the IC50 in assay [1] (setting [4]) was 1.32 nM; in assay [2], more than 10000 nM. Besides, the “BAF3-KDR (MIN IL3) pIC50” value in assay [3] is reported as 6.30.

As to `COc1cc(OC)c(F)c(N(CC2CCC(=O)N2)c2ccc3ncc(-c4cnn(C)c4)nc3n2)c1F` (stereo not drawn) [Compound 192], the IC50 in assay [1] (setting [4]) is 2.51 nM; in assay [2] it was more than 10000 nM. In addition, the “BAF3-KDR (MIN IL3) pIC50” value in assay [3] stood at 6.11.

For `COc1cc(OC)c(F)c(N(Cc2ncc[nH]2)c2ccc3ncc(-c4cnn(C)c4)nc3n2)c1` [Compound 23], the results for the IC50 in assay [1] (setting [4]) and in assay [2] were 1.45 nM and more than 10000 nM, respectively. Further, the “BAF3-KDR (MIN IL3) pIC50” value in assay [3] amounted to 6.74.

For the molecule `COc1cc(OC)c(F)c(N(Cc2nc[nH]n2)c2ccc3ncc(-c4cnn(C)c4)nc3n2)c1` [Compound 86], the figures for the IC50 in assay [1] (setting [4]) and in assay [2] were 1.41 nM and more than 10000 nM, respectively. Moreover, the “BAF3-KDR (MIN IL3) pIC50” value in assay [3] was 6.24.

In the case of `COc1cc(OC)c(Cl)c(N(Cc2ncc[nH]2)c2ccc3ncc(-c4cnn(C)c4)nc3n2)c1Cl` [Compound 98], the IC50 in assay [1] (setting [4]) is 4.37 nM; in assay [2], more than 10000 nM. Further, in assay [3], the “BAF3-KDR (MIN IL3) pIC50” value is recorded as 6.19.

Take `COc1cc(OC)c(Cl)c(N(CC2CCC(=O)N2)c2ccc3ncc(-c4cnn(C)c4)nc3n2)c1Cl` (single isomer, unassigned) [Compound 88]: the IC50 was 9.12 nM in assay [1] (setting [4]) and more than 10000 nM in assay [2]. For the same molecule, the “BAF3-KDR (MIN IL3) pIC50” value in assay [3] is on record as 5.14.

Turning to `COc1cc(OC)c(F)c(N(Cc2nc3c([nH]2)CCNC3)c2ccc3ncc(-c4cnn(C)c4)nc3n2)c1` [Compound 104], the values for the IC50 in assay [1] (setting [4]) and in assay [2] were 3.24 nM and more than 10000 nM, respectively. In assay [3], the “BAF3-KDR (MIN IL3) pIC50” value was 5.10.

With `COc1cc(OC)c(F)c(N(CCN)c2ccc3ncc(-c4cnn(C)c4)nc3n2)c1F` [Compound 67], the IC50 in assay [1] (setting [4]) was 1.78 nM; in assay [2], more than 10000 nM. The “BAF3-KDR (MIN IL3) pIC50” value in assay [3] was 6.59.

As for `COc1cc(OC)c(F)c(N(CCCN2CCCC2=O)c2ccc3ncc(-c4cnn(C)c4)nc3n2)c1` [Compound 120], the IC50 is 3.02 nM in assay [1] and more than 10000 nM in assay [2]. Further, the “BAF3-KDR (MIN IL3) pIC50” value in assay [3] is recorded as 6.10.

On to `COc1cc(OC)cc(N(CCCN2CCCC2=O)c2ccc3ncc(-c4cnn(C)c4)nc3n2)c1` [Compound 134], for which the values for the IC50 in assay [1] and in assay [2] were 3.09 nM and more than 10000 nM, respectively. Also, the “BAF3-KDR (MIN IL3) pIC50” value in assay [3] worked out at 5.20.

Turning to `COc1cc(OC)c(F)c(N(CCCN2CCCC2=O)c2ccc3ncc(-c4cnn(C)c4)nc3n2)c1F` [Compound 56], the results for the IC50 in assay [1] (setting [4]) and in assay [2] were 2.82 nM and more than 10000 nM, respectively. In assay [3], the “BAF3-KDR (MIN IL3) pIC50” value worked out at 6.60.

As for `COc1cc(OC)c(F)c(N(Cc2c[nH]cn2)c2ccc3ncc(-c4cnn(C)c4)nc3n2)c1` [Compound 41], the IC50 in assay [1] (setting [4]) was 1.32 nM; in assay [2] it was more than 10000 nM. Besides, the “BAF3-KDR (MIN IL3) pIC50” value in assay [3] amounted to 6.70.

As for `COc1ccc(F)c(N(Cc2ncc[nH]2)c2ccc3ncc(-c4cnn(C)c4)nc3n2)c1Cl` [Compound 73], the IC50 in assay [1] (setting [4]) is 2.82 nM; in assay [2], more than 10000 nM. Further, the “BAF3-KDR (MIN IL3) pIC50” value in assay [3] was determined as 5.55.

Turning to `CNCCN(c1ccc2ncc(-c3cn[nH]c3)nc2n1)c1c(F)c(OC)cc(OC)c1F` [Compound 106], the IC50 in assay [1] (setting [4]) was 2.14 nM; in assay [2], more than 10000 nM. The “BAF3-KDR (MIN IL3) pIC50” value in assay [3] is recorded as 5.59.

For the molecule `COc1cc(OC)c(F)c(N(Cc2ccnn2C)c2ccc3ncc(-c4cnn(C)c4)nc3n2)c1` [Compound 113], the values for the IC50 in assay [1] (setting [4]) and in assay [2] were 2.19 nM and more than 10000 nM, respectively. Besides, the “BAF3-KDR (MIN IL3) pIC50” value in assay [3] was determined as 5.33.

Turning to `COc1cc(/N=c2\ccc3ncc(-c4cnn(C)c4)nc3n2CC2COC(=O)N2)c(F)c(OC)c1` (single isomer, unassigned) [Compound 112], the IC50 in assay [1] (setting [4]) was 1.66 nM; in assay [2], more than 10000 nM. Further, the “BAF3-KDR (MIN IL3) pIC50” value in assay [3] came to 5.65.

Source of the values: patent US9309242B2, “Substituted pyrido[2,3-b]pyrazines as FGFR kinase inhibitors” (priority 2011, dated 2016).
